# Tested on: Lolium multiflorum
# Test: Outdoor trial, post-emergence herbicidal action (Example 5.2)
# Format: in vivo
# Conditions: 1080 g of AS/ha, application at the 2-5-leaf stage (post-emergence), evaluation 55 days after treatment
# Protocol: The herbicidal efficacy of the active compounds or active compound mixtures was scored visually by comparing the treated pots (soil) with untreated controls. The damage and development of all above-ground plant parts was recorded. Scoring was done on a percentage scale (100% action=all plants dead or not emerged; 50% action=50% of the plants and green plant parts dead or not emerged; 0% action=no discernible action=like control plot). The score figures of in any case 4 repetitions (pots) were averaged.
# When applying the combinations according to the invention, herbicidal effects are frequently observed on a harmful plant species which exceed the formal total of the effects of the herbicides present when these are applied by themselves. Alternatively, it is observed in some cases that a lower application rate is required for the herbicide combination in order to achieve the same effect on a harmful plant species in comparison with the individual products. […] When the data observed already exceed the formal total of the data in the experiments with individual applications, they likewise exceed the expected value according to Colby, which is calculated using the formula below and is likewise regarded as an indication of synergism (cf. S. R. Colby; in Weeds 15 (1967) pp. 20 to 22): E=A+B−(A·B/100) […]
substance,measurement,value
Glyphosate-isopropylammonium [(B2.1.2.1)],Herbicidal action [%] against Lolium multiflorum,18%

# Source: US8236729B2, “Herbicidal compositions” (Bayer Cropscience AG, priority 2004, dated 2012)
